Data reported in US20200239530A1, “COMPOUNDS AND METHODS OF MODULATING PROTEIN DEGRADATION” (Vividion Therapeutics, Inc., priority 2017, published 2020).

Columns and labels:
Test in all cases: Cysteine liganding, probe competition
Type in all cases: binding
FASN Fatty acid synthase = molecular target: T1, FASN Fatty acid synthase (Homo sapiens, UniProt P49327)
T1 construct: 200 μL of lysate containing 5 mg/ml proteome was treated with 2 μL of 100× compound stock; endogenous in cells
Outline: (§1)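 Probe competition in native proteome: 5 mg/ml lysate, compound 1 hr 25° C, then desthiobiotin iodoacetamide (10 mM stock) 1 hr 25° C; acetone ppt, urea/DTT reduction, iodoacetamide alkylation, trypsin, streptavidin pull-down.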

[1] = molecular target: T2, BACH1 Transcription regulator protein BACH1 (Homo sapiens, UniProt O14867); conditions: for Liganded: BACH1 Res# 224, uniprot O14867
T2 construct: Cells were resuspended in cold PBS on ice and sonicated with a probe sonicator to achieve lysis; endogenous in cells
T2 sequence (O14867 1-736): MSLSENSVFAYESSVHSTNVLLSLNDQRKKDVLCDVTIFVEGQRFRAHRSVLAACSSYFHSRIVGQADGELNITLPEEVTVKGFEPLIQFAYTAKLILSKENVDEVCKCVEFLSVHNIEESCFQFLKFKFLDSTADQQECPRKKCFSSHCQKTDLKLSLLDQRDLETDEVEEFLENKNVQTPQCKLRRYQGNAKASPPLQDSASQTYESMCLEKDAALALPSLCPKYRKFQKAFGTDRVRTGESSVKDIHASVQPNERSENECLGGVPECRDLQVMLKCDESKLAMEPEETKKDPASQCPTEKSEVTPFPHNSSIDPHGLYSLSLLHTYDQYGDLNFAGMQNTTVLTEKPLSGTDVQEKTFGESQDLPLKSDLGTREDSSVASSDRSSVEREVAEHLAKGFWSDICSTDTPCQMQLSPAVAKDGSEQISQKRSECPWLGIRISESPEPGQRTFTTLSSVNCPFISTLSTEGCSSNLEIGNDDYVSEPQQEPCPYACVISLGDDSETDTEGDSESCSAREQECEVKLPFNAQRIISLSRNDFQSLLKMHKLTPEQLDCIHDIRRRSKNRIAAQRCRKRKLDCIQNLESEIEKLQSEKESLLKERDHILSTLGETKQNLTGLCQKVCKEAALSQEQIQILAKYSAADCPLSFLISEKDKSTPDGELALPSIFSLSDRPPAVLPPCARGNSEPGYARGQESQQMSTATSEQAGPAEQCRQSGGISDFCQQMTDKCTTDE
Outline: as §1

[2] = molecular target: T3, BACH2 Transcription regulator protein BACH2 (Homo sapiens, UniProt Q9BYV9)
T3 construct: Cells were resuspended in cold PBS on ice and sonicated with a probe sonicator to achieve lysis; endogenous in cells
T3 sequence (Q9BYV9 whole entry): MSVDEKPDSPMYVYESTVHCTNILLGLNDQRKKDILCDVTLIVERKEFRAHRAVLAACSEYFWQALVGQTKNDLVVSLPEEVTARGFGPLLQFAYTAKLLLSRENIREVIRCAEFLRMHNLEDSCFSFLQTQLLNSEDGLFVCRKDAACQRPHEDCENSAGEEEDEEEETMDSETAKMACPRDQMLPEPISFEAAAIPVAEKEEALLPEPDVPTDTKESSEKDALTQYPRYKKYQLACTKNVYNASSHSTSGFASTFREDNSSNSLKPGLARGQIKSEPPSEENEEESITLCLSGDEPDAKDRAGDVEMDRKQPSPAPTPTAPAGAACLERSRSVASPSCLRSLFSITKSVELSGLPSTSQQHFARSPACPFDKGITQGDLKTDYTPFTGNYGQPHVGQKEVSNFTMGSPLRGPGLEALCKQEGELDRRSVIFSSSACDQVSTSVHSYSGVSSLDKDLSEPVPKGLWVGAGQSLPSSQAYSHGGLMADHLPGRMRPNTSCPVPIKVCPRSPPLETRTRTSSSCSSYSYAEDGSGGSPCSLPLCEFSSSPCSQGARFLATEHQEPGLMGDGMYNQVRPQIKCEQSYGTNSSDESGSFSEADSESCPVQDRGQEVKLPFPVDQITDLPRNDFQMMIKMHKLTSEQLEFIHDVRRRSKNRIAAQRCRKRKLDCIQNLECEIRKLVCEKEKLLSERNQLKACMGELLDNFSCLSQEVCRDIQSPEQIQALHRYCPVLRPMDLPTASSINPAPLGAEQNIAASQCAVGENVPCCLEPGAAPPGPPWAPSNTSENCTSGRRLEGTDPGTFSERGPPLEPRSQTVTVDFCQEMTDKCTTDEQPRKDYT
Outline: as §1

T1 sequence (P49327 whole entry): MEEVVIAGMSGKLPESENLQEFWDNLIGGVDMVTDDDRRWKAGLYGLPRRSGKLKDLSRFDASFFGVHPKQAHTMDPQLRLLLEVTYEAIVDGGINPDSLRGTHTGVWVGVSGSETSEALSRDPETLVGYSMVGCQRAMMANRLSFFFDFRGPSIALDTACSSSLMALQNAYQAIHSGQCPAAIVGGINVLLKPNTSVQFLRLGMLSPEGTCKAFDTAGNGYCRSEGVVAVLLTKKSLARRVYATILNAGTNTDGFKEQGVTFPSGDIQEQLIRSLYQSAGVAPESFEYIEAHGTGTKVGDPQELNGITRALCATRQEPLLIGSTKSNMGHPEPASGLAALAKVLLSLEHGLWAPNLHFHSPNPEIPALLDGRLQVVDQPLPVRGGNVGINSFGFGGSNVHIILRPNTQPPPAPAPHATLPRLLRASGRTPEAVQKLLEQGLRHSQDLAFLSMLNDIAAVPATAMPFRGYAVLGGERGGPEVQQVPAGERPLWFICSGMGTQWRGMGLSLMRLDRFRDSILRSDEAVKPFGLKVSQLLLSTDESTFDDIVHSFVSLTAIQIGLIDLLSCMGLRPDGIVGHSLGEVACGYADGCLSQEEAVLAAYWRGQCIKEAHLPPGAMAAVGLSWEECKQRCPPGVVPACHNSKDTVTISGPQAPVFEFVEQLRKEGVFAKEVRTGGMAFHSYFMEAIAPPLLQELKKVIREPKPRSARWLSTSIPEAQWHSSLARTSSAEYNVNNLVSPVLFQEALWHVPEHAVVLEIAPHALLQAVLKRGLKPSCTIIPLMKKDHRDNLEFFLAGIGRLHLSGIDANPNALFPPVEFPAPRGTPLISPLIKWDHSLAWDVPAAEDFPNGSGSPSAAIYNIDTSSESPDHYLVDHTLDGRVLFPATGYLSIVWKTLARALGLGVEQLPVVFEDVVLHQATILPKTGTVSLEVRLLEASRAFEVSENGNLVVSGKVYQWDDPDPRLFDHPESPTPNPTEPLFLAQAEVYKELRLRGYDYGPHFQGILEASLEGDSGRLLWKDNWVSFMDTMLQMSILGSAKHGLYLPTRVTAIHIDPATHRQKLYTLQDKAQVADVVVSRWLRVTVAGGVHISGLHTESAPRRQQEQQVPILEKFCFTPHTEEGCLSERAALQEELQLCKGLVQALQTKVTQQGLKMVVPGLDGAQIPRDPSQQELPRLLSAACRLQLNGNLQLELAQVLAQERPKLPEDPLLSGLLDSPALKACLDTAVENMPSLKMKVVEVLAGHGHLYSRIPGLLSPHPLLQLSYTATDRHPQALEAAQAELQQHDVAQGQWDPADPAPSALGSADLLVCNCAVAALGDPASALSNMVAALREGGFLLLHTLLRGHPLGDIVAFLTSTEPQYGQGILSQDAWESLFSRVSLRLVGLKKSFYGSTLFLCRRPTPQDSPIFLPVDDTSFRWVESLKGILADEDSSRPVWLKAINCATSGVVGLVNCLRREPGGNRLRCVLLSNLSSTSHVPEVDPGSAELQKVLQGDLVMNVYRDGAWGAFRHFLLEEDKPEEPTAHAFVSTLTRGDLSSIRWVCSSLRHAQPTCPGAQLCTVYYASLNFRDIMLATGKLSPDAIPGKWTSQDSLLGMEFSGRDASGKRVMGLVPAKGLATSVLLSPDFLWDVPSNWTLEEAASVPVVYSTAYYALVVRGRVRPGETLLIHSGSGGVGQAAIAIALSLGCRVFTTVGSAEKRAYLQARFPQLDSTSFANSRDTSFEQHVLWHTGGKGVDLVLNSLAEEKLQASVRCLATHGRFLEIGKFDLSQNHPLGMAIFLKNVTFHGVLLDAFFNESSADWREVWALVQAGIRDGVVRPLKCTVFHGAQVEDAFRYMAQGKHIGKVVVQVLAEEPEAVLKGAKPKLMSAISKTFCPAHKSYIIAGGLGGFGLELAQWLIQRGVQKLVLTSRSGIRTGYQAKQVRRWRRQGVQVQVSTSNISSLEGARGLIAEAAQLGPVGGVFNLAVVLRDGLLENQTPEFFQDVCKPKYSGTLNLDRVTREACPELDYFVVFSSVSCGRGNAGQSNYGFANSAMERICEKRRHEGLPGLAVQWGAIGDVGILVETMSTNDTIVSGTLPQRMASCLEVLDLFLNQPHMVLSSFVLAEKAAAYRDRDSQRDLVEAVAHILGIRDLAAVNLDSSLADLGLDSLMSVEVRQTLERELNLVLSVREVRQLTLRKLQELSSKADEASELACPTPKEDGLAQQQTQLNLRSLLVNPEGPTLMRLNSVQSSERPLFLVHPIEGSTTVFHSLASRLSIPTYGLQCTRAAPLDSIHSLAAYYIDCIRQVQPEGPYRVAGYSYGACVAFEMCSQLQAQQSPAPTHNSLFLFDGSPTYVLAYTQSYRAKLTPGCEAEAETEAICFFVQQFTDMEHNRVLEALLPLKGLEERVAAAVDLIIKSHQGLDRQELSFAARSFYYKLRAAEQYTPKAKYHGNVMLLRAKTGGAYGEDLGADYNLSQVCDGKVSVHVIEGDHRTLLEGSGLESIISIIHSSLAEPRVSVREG

SMILES | 100 Max (FASN Fatty acid synthase; uniprot P49327) | 100 ave (FASN Fatty acid synthase; uniprot P49327) | Liganded [1] | 100 Max ([1]; uniprot O14867) | 100 ave ([1]; uniprot O14867) | 500 Max ([1]; uniprot O14867) | 500 ave ([1]; uniprot O14867) | 100 Max ([2]; uniprot Q9BYV9) | 100 ave ([2]; uniprot Q9BYV9) | 500 ave ([2]; uniprot Q9BYV9) | 500 Max ([2]; uniprot Q9BYV9, unit assumed) | Liganded (FASN Fatty acid synthase; FASN Res# 161, uniprot P49327) | Liganded ([2]; BACH2 Res# 370, uniprot Q9BYV9)
O=C(CCl)Nc1cc(C(F)(F)F)cc(C(F)(F)F)c1 [KBO3] | −26.25 | −26.25 | YES | 53.8 | 53.8 | 85.3 | 85.3 | 25.4 | 17.2 | 62.8 | 62.8% | – | –
COc1ccc2c(c1)CCCN2C(=O)CCl [KB02] | – | – | YES | – | – | – | – | – | – | – | – | YES | YES
